Experimental data from US20250241942A1, “METHODS OF SYNTHESIZING CONDUCTIVE POLYMERS IN BIOLOGICAL SYSTEMS AND METHODS OF USING CONDUCTIVE POLYMERS” (Purdue Research Foundation, priority 2024, published 2025).
Read-outs that look alike come from different tables or passages of the source.

Columns and labels:
A549 lung cancer cells = format: cell-based
Text: Because the BDF monomer can lyse the RBCs, the cytotoxicity of the BDF monomer and n-PBDF in A549 lung cancer cells was further studied. It was observed that the n-PBDF polymer is non-toxic to cancer cells, with cell viability remaining close to 100% regardless of the polymer concentration. […] Although the BDF monomer is toxic in cancer cells, it may not impede the in vivo polymerization process, as once the polymerization reaction begins, the toxicity quickly diminishes.

[1] = test system: primary motor cortex (M1); set-up: species or system mice; conditions: mouse, in vivo
[2] = Subcutaneous administration of BDF and n-PBDF solutions in mice, observation and complete blood count; conditions: mouse, in vivo, sc
Text: Furthermore, the non-toxicity of the polymerization process and the resulting polymer was confirmed by subcutaneously administering BDF and n-PBDF solutions in mice. […] The investigations reported below explored the use of n-PBDF to modulate the neural activity of cortical pyramidal neurons in mice acute brain slices, showing the interaction of n-PBDF with the neurons at a cellular level, leading to a decrease in the intrinsic excitability of the neurons. […] These and other aspects of the method will be more fully appreciated from the following discussion of the investigations.

[3] = Solubility of BDF monomer; format: physicochemical
Text: Though existing methods of synthesizing n-PBDF are efficient, they are unsuitable within living systems. […] Existing synthesis methods also require high temperatures and employ dimethyl sulfoxide (DMSO) as a solvent. To overcome this limitation, methods were investigated for synthesizing n-PBDF in aqueous media using surfactants, which are also utilized in the synthesis of conductive polymer nanoparticles. […] Using TPGS as a surfactant, n-PBDF can be polymerized in aqueous media through emulsion polymerization. By incorporating an insignificant amount (5%) of DMSO and 1% w/w TPGS, this method was found suitable for use in biological systems, as discussed below.

red blood cells = assay: Hemolysis assay on reaction components; format: cell-based; conditions: 0.2 mg/mL
Procedure: To evaluate the efficacy of polymerization without the need for constant stirring, a method was employed whereby the solution was placed in an incubator with a rocker at 37° C. Upon introduction of whole blood into the reaction vessel without stirring, a sluggish reaction was observed, and the vessel turned black after three hours into the reaction. […] Based on these observations from the reaction without stirring, it was deduced the lysis of the RBCs with the BDF monomer. To confirm, a hemolysis assay was used on the various reaction components and with different BDF concentrations. […] This explained the initial slow reaction and formation of n-PBDF without stirring.

zebrafish embryos = assay: BDF injection into the vasculature of zebrafish embryos, in vivo polymerization and viability
Procedure: Finally, BDF monomer with 1% w/w TPGS in the PBS media solution was injected in the vasculature of 3-day post-fertilization zebrafish embryos to validate the whole blood catalyzed in vivo polymerization of BDF to synthesize n-PBDF. The fish embryos were injected at the end of the tail (FIG. 5A) with different BDF concentrations from 1 mM to 15 mM and kept inside an incubator at 34° C. […] To prevent the misconception of pigmentation in the skin of the embryos as a darkened yolk, zebrafish embryos were treated with 1-phenyl 2-thiourea (PTU). PTU treatment removed the pigment from the skin, allowing for better visualization of the darkening of the embryo's yolk (FIG. 5C). In the case of a 1 mM BDF concentration injection, a clear yolk was observed similar to that seen in control zebrafish embryos. Significant darkening happened when the concentration was increased to 10 mM. Furthermore, 15 mM BDF concentration was injected into the zebrafish embryo, where the yolk was even darker with respect to the 10 mM BDF concentration injection. To characterize the darkened yolk, UV-Vis-NIR measurements were collected on all zebrafish embryos with different concentrations of BDF injections along with the control fish (only PBS injection). […]

Compound	cell viability (A549 lung cancer cells)	retention at the injection site [1]	complete blood count (CBC), signs of acute toxicity [2]	physical stress or discomfort [2]	solubility in aqueous media ([3]; aqueous media)	solubility in organic solvents ([3]; organic solvents)	hemolysis (red blood cells)	embryos alive (zebrafish embryos; after 24 h incubation, BDF 1 mM to 15 mM, 34° C.)	toxicity of BDF injection and in vivo polymerization (zebrafish embryos; zebrafish embryos)	cell viability (A549 lung cancer cells; human, 72 h, 5 μg/mL)	cell viability (A549 lung cancer cells; human, 72 h, 0.167 mg/mL)
n-doped poly(3,7-dihydrobenzo[1,2-b:4,5-b′]difuran-2,6-dione [n-PBDF]	~100%	remained in the injection site for extended periods	–	–	–	–	–	–	–	–	–
O=C1Cc2cc3c(cc2O1)CC(=O)O3 [BDF, 3,7-dihydrobenzo[1,2-b:4,5-b′]difuran-2,6-dione]	slightly improved cell viability at higher concentrations	–	no signs of acute toxicity except for a minor level of hemolysis	No physical stress or discomfort was observed	insoluble	limited solubility	approximately 40%	at least 80%	almost no toxicity	approximately 75%	around 10%
